How the values were obtained:
[1] = test system: tumor interstitial pressure; conditions: rat model; cited from earlier work
[2] = test system: tumors; conditions: treatment with imatinib; cited from earlier work
[3] = test system: implanted tumors; conditions: mouse; cited from earlier work
[4] = test system: renal cancer patients; conditions: monotherapy; cited from earlier work
[5] = Clinical tolerability of crenolanib, single agent and with chemotherapy; type: in vivo; conditions: single agent and combined with chemotherapy; most common adverse events gastrointestinal toxicities, elevated liver enzymes and bilirubin, edema/effusions
Source text: Unlike axitinib, VEGF/VEGFR antibodies are associated with minimal toxicity and the combination of these antibodies and chemotherapy is very well-tolerated. In particular, axinitinib monotherapy (in renal cancer patients) is associated with notable toxicities, including all-grade fatigue, anorexia, nausea, diarrhea and hand-foot syndrome in >25% of patients. Additionally, paclitaxel is less myelosuppressive than docetaxel. These improved toxicities support the combination of crenolanib and an alternative VEGFR inhibitor (including ramucirumab) in addition to and chemotherapy in patients with advanced cancers.

[6] = test system: gastric cancer; conditions: monotherapy; cited from earlier work

Cc1ccc(NC(=O)c2ccc(CN3CCN(C)CC3)cc2)cc1Nc1nccc(-c2cccnc2)n1 [Imatinib]
effect on capillary-to-interstitium transport of solutes [1]: increase the capillary-to-interstitium transport of solutes
effect on interstitial hypertension [1]: decrease interstitial hypertension
effect on anti-tumor effect of paclitaxel [2]: increased anti-tumor effect of paclitaxel
effect on paclitaxel uptake by the tumors [2]: increased paclitaxel uptake by the tumors

Cc1cc(C)c(/C=C2\C(=O)Nc3ccccc32)[nH]1 [SU5416]
effect on established tumor blood vessels [3]: failed to induce regression of established blood vessels
effect on tumor growth [3]: prevented tumor growth

Cc1[nH]c(/C=C2\C(=O)Nc3ccccc32)c(C)c1CCC(=O)O [SU6668]
effect on established tumor blood vessels [3]: regression of established tumor vessels
effect on tumor growth [3]: suppression of tumor growth

CNC(=O)c1ccccc1Sc1ccc2c(/C=C/c3ccccn3)n[nH]c2c1 [axinitinib]
patients with all-grade fatigue, anorexia, nausea, diarrhea and hand-foot syndrome [4]: > 25%

CC1(COc2ccc3c(c2)ncn3-c2ccc3cccc(N4CCC(N)CC4)c3n2)COC1 [crenolanib, 4-Piperidinamine, 1-[2-[5-[(3-methyl-3-oxetanyl)methoxy]-1H-benzimidazol-1-yl]-8-quinolinyl]]
tolerability [5]: generally well tolerated

ramucirumab: antibody against VEGF receptor 2 (VEGFR2)
progression-free survival (PFS) improvement over placebo [6]: 0.8 months
response rate (RR) [6]: 3%
